Laboratory results reported in patent US12472178B2, “Amorphous solid dispersions” (INTRA-CELLULAR THERAPIES, INC., priority 2016, dated 2025).

Legend:
[1] = amorphous form compared with the crystalline form; cited from earlier work
5-HT2C = biological target: T1, 5-HT2C (Homo sapiens, UniProt P28335); conditions: cited from earlier work
T1 sequence (P28335 33-458): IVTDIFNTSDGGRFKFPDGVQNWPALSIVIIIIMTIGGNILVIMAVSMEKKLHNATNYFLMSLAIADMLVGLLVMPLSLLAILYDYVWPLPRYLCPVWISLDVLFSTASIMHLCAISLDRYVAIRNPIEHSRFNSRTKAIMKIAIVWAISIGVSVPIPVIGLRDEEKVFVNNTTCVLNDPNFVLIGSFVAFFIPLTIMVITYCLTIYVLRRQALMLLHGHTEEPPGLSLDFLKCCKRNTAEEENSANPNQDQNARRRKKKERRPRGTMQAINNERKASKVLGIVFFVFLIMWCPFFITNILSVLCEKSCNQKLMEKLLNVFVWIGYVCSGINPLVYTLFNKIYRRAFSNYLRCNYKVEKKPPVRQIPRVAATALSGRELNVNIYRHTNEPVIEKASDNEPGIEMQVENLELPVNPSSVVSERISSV

muscarinic receptors = conditions: cited from earlier work
[2] = Glass transition temperature by mDSC; assay type: physicochemical; conditions: ITI-007 free base dispersions; Yes/No
[3] = free base form; cited from earlier work
[4] = Stability of solutions in 2,2,2-trifluoroethanol; assay type: physicochemical; conditions: solutions in TFE
H1 histaminergic = H1 histaminergic (Homo sapiens, UniProt P35367); conditions: cited from earlier work
[5] = Preliminary screen of lyophilized dispersions by XRPD and appearance; assay type: physicochemical; conditions: ITI-007 free base dispersions, as generated
Description: X-ray powder diffraction (XRPD): The X-ray powder diffraction studies are performed using a PANalytical X′Pert PRO MPD diffractometer using an incident beam of Cu radiation produced using an Optix long, fine-focus source. An elliptically graded multilayer mirror is used to focus Cu Kα X-ray radiation through the specimen and onto the detector. Prior to analysis, a silicon specimen is analyzed to verify the observed position of the Si (111) peak (consistent with the NIST-certified position, NIST SM 640e). A specimen of the sample is sandwiched between 3-micron thick films and analyzed in transmission geometry. A beam-stop, short antiscatter extension, and antiscatter knife edge is used to minimize the background generated by the air. Soller slits for the incident and diffracted beams are used to minimize broadening from axial divergence. Diffraction patterns are collected using a scanning position-sensitive detector (X′Celerator) located 240 mm from the specimen. Data Collector software v. 2.2b is used for analysis.
Solutions are initially frozen in a dry ice/acetone bath, and then placed in a freeze dryer with the shelf pre-cooled to −75° C. […]
Solid dispersions obtained from Example 1 are first evaluated by XRPD to determine if they are amorphous. […]
The same excipients are evaluated as described in Example 1.

Chain of H1 histaminergic (P35367 whole entry): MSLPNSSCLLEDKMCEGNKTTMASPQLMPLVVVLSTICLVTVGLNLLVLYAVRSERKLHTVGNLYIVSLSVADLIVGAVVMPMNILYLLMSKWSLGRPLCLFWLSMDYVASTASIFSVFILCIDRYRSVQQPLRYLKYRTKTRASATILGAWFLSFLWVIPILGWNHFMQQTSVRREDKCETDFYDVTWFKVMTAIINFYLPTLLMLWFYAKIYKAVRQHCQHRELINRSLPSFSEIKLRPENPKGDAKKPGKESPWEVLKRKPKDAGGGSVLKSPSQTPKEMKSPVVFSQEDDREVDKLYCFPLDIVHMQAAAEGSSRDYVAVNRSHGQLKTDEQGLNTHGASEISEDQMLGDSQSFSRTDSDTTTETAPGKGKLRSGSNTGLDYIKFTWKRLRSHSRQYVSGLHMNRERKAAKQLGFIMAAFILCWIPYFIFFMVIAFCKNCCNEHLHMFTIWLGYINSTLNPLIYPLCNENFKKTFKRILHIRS

SMILES | bioavailability [1] | binding (5-HT2C) | binding (muscarinic receptors) | Tg > 75° C. [2] | solubility in water [3] | stability of solution [4] | binding (H1 histaminergic) | X-ray Amorphous Solids? [5]
CO/N=C(\C(=O)N[C@@H]1C(=O)N2C(C(=O)OC(C)OC(C)=O)=C(COC(N)=O)CS[C@H]12)c1ccco1 (some centres unmarked) [Cefuroxime axetil] | higher bioavailability |  |  |  |  |  |  | 
CN1CCN2c3c(cccc31)[C@@H]1CN(CCCC(=O)c3ccc(F)cc3)CC[C@@H]12 [ITI-007, 1-(4-fluoro-phenyl)-4-((6bR,10aS)-3-methyl-2,3,6b,9,10,10a-hexahydro-1H,7H-pyrido[3′,4′:4,5]pyrrolo[1,2,3-de]quinoxalin-8-yl)-butan-1-one] |  | negligible binding | negligible binding | No | poor solubility | rapidly discolor due to decomposition of the active | negligible binding | No
